The values that follow are results of earlier work, collected in US6605646B2, “Vitamin supplement composition” (Upsher-Smith Laboratories, Inc., priority 1995, dated 2003).

Each structure is given as a SMILES string.

For this data set the following is noted: grain fortification, elderly adults.

As for `Nc1nc2ncc(CNc3ccc(C(=O)N[C@@H](CCC(=O)O)C(=O)O)cc3)nc2c(=O)[nH]1` [folic acid, pteroylglutamic acid], the serum folate result is listed as “increased serum folate” and the serum homocysteine result is “decreased serum homocysteine”.
